Values of other authors in patent publication US20230191113A1, “METHOD AND APPARATUS FOR CANCER TREATMENT” (Minnesota Medical Physics LLC, priority 2020, published 2023).

Tests used:
cancer tumors = conditions: cited from earlier work
A3 receptors = biological target: T1, A3 receptors (Homo sapiens, UniProt P0DMS8); conditions: allosteric enhancer added to A3AR agonist; cited from earlier work
T1 sequence (P0DMS8 1-318): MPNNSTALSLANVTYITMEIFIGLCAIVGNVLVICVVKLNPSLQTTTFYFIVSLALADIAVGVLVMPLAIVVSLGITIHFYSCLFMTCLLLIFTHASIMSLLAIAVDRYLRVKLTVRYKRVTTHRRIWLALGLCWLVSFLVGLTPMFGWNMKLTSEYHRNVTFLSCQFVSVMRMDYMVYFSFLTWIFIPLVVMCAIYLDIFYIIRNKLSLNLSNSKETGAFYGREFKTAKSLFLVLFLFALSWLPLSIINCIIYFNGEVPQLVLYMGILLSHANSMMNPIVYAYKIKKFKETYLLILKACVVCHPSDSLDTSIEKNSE

| SMILES | increase of the apoptotic rate by one-dimensional EFS (cancer tumors; CL-IB-MECA plus one-dimensional EFS) [factor] | effect on growth of cancer tumors (cancer tumors; multiple studies, significant dose of A3AR agonist alone) | increase of the maximum efficacy of A3 receptors agonists (A3 receptors) [%] |
| --- | --- | --- | --- |
| CNC(=O)[C@H]1O[C@@H](n2cnc3c(NCc4cccc(I)c4)nc(Cl)nc32)[C@H](O)[C@@H]1O [CL-IB-MECA] | 0.4 | slowed down the growth of cancer tumors | – |
| Clc1ccc(Nc2nc3ccccc3c3nc(C4CCCCC4)[nH]c23)cc1Cl [LUF6000] | – | – | 45 |
